ChEMBL document CHEMBL5537182, “Small Molecule Benzothiophene with In Vivo Efficacy in a Mouse Model of Drug-Resistant Enterococcus faecium Infection” (J Med Chem, 2024)
In brackets after ≈: the same amount, converted by molar mass. Activity calls are given as the source filed them. The rule behind the calls is not given here.

Experiments:
Enterococcus faecium [1] = assay: Anti-bacterial activity against drug-resistant Enterococcus faecium NCTC 7171 assessed as invisible pellets in media measured after overnight incubation; format: functional
Enterococcus faecium [2] = assay: Anti-bacterial activity against vancomycin-resistant Enterococcus faecium EN 2966 assessed as invisible pellets in media measured after overnight incubation; format: functional
[3] = Cytotoxicity against African green monkey Vero cells assessed as cell viability incubated for 48 hrs by MTT assay; format: toxicity, cell-based; conditions: chlorocebus sabaeus
Staphylococcus aureus = assay: Anti-bacterial activity against Staphylococcus aureus ATCC 43300 assessed as invisible pellets in media measured after overnight incubation; format: functional
Klebsiella pneumoniae = assay: Anti-bacterial activity against Klebsiella pneumonia BAA 2146 assessed as invisible pellets in media measured after overnight incubation; format: functional
Acinetobacter baumannii = assay: Anti-bacterial activity against Acinetobacter baumannii ATCC 19606 assessed as invisible pellets in media measured after overnight incubation; format: functional
Pseudomonas aeruginosa = assay: Anti-bacterial activity against Pseudomonas aeruginosa HER 1018 assessed as invisible pellets in media measured after overnight incubation; format: functional
[4] = Metabolic stability in mouse liver microsomes assessed as half life by LC-MS/MS analysis; format: ADME, Microsome
[5] = Kinetic solubility of the compound in aqueous buffer at pH 7.4 measured after 4 hrs by LC-MS/MS analysis; format: physicochemical; conditions: read-out: Kinetic_solubility
[6] = AUC (0 to 5 hrs) in CD-1 mouse at 25 mg/kg, po by LC-MS/MS analysis; format: ADME, organism-based; conditions: in vivo; for AUC(0-t): CD-1, mouse
Enterococcus faecium [7] = assay: In vivo anti-bacterial activity against vancomycin-resistant Enterococcus faecium EN 2966 infected immunocompetent mouse model of acute peritonitis-sepsis assessed as protection at 100 mg/kg, sc measured upto 3 days; format: functional, organism-based; conditions: time <= 3.0 day
[8] = Metabolic stability in human liver microsomes assessed as half life by LC-MS/MS analysis; format: ADME, Microsome
[9] = Plasma stability in human plasma assessed as remaining at 5 uM measured after 5 hrs by LC-MS/MS analysis; format: ADME, cell-free
[10] = Plasma stability in mouse plasma assessed as remaining at 5 uM measured after 5 hrs by LC-MS/MS analysis; format: ADME, cell-free
[11] = Plasma protein binding in human at 5 uM measured after 5 hrs by LC-MS/MS analysis; format: ADME, cell-free; conditions: read-out: PPB (converted)
[12] = Plasma protein binding in mouse at 5 uM measured after 5 hrs by LC-MS/MS analysis; format: ADME, cell-free; conditions: read-out: PPB
Cytochrome P450 1A2 = target: T1, Cytochrome P450 1A2 (Homo sapiens, UniProt P05177); assay: Inhibition of CYP1A2 in human liver microsomes using phenacetin as substrate; format: ADME, Microsome
T1 sequence (P05177 whole entry): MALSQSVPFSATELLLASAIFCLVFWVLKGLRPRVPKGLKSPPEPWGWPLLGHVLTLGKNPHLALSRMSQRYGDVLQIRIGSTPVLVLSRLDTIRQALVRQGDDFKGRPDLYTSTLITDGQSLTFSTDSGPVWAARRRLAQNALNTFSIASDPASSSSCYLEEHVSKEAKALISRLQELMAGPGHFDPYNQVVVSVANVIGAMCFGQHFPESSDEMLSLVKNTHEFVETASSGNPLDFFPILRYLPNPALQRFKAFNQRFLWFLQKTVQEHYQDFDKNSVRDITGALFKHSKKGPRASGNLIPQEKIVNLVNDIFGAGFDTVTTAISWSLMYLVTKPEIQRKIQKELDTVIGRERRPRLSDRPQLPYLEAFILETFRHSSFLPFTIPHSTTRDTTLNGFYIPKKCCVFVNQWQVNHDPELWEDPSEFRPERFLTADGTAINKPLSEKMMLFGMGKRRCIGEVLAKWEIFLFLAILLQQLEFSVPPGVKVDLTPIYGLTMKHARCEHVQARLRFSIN

Cytochrome P450 2C9 = Cytochrome P450 2C9 (Homo sapiens, UniProt P11712); assay: Inhibition of CYP2C9 in human liver microsomes using diclofenac as substrate; format: ADME, Microsome
Cytochrome P450 2C19 = Cytochrome P450 2C19 (Homo sapiens, UniProt P33261); assay: Inhibition of CYP2C19 in human liver microsomes using omeprazole as substrate; format: ADME, Microsome
Cytochrome P450 2D6 = Cytochrome P450 2D6 (Homo sapiens, UniProt P10635); assay: Inhibition of CYP2D6 in human liver microsomes using dextromethorphan as substrate; format: ADME, Microsome
Cytochrome P450 3A4 = Cytochrome P450 3A4 (Homo sapiens, UniProt P08684); assay: Inhibition of CYP3A4 in human liver microsomes using midazolam as substrate; format: ADME, Microsome
[13] = Oral bioavailability in CD-1 mouse at 25 mg/kg by LC-MS/MS analysis; format: ADME, organism-based; conditions: in vivo
[14] = Toxicity in CD-1 mouse assessed as tolerability at 300 mg/kg, po; format: organism-based; conditions: in vivo
Enterococcus faecium [15] = assay: In vivo anti-bacterial activity against vancomycin-resistant Enterococcus faecium EN 2966 infected immunocompetent mouse model of acute peritonitis-sepsis assessed as protection at 150 mg/kg, po measured upto 3 days; format: functional, organism-based; conditions: time <= 3.0 day
Enterococcus faecium [16] = assay: Release of NO in drug-resistant Enterococcus faecium NCTC 7171 assessed as NO generation at 100 uM measured upto 2 hrs by Griess assay; format: functional, organism-based
Enterococcus faecium [17] = assay: Bactericidal activity against drug-resistant Enterococcus faecium NCTC 7171 assessed as invisible pellets in media measured after 2 days incubation; format: functional; conditions: NCTC 7171, 48 h, time 2 day

Cytochrome P450 3A4, sequence (P08684 whole entry): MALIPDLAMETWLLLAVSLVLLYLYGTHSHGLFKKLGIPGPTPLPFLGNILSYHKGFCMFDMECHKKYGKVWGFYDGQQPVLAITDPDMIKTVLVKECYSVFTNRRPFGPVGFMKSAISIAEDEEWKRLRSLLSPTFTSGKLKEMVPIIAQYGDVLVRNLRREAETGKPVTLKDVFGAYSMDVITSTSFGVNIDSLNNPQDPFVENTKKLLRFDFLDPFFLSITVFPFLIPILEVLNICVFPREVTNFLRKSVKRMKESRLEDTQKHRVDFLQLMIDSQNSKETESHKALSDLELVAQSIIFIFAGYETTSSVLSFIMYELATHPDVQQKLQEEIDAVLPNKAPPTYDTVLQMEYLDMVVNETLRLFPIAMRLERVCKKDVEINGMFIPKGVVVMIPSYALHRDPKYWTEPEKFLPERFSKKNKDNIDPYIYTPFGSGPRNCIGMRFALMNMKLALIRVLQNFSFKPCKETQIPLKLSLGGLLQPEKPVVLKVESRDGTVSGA
Cytochrome P450 2D6, sequence (P10635 whole entry): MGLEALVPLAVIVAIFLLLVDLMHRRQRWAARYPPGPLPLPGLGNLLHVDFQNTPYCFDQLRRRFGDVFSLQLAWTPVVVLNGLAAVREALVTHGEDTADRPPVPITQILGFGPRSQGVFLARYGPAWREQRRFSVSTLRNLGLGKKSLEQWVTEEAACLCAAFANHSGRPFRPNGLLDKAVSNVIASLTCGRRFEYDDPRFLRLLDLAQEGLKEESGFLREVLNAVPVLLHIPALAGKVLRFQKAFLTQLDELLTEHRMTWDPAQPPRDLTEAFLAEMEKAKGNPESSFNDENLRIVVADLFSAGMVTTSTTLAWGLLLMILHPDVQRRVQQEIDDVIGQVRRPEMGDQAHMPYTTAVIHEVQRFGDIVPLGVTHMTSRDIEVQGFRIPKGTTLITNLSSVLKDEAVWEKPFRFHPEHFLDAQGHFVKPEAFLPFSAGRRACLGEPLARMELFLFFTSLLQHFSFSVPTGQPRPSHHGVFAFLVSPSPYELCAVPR
Cytochrome P450 2C19, sequence (P33261 whole entry): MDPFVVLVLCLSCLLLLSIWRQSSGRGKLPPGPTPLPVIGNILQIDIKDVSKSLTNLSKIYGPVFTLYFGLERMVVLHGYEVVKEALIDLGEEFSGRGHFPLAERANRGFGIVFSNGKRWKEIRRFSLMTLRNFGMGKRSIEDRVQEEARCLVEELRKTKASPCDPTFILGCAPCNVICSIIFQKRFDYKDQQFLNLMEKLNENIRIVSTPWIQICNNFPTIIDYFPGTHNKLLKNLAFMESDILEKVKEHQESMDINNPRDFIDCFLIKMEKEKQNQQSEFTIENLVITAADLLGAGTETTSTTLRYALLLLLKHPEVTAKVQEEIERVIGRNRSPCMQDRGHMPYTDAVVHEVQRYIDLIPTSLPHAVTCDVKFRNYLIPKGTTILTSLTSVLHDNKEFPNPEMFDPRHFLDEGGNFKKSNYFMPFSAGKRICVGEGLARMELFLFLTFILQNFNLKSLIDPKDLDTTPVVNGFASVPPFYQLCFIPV
Cytochrome P450 2C9, sequence (P11712 whole entry): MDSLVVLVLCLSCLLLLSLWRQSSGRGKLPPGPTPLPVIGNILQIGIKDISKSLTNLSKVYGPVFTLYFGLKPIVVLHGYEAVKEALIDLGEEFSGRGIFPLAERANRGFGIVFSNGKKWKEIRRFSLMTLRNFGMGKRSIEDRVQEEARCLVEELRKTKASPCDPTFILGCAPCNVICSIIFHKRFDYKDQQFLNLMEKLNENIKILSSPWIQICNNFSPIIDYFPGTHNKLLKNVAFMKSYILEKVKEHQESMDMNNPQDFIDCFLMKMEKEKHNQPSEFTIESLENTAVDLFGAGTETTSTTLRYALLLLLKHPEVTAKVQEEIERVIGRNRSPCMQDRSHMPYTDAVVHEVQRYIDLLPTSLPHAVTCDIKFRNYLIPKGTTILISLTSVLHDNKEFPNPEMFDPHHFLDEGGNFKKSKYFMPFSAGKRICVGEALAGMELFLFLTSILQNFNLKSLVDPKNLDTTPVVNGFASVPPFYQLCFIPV

SMILES	MIC (Enterococcus faecium [1])	CC50 [3]	also measured
CC(=O)NC[C@H]1CN(c2ccc(N3CCOCC3)c(F)c2)C(=O)O1 [LINEZOLID]	4.6 µM (≈ 1.55 µg/mL)		MIC (Enterococcus faecium [2]): 4.7 µM (≈ 1.59 µg/mL)
O=C(NNC(=O)c1cc2c(s1)CCCC2)c1ccc([N+](=O)[O-])o1	37 µM (≈ 12.4 µg/mL)	37 µM	
O=C(NNC(=O)c1ccc([N+](=O)[O-])o1)c1cc2ccccc2[nH]1	> 100 µM	> 160 µM	
O=C(N/N=C/c1cc2ccccc2s1)c1ccc([N+](=O)[O-])o1	> 158 µM	39 µM	
O=C(NNC(=O)c1cc2ccccc2s1)c1ccc([N+](=O)[O-])o1	> 174 µM		MIC (Staphylococcus aureus): > 150 µM; MIC (Klebsiella pneumoniae): > 150 µM; MIC (Acinetobacter baumannii): > 150 µM; MIC (Pseudomonas aeruginosa): > 150 µM; t1/2 [4]: 3.3 min; solubility kinetic at 4 h [5]: 103 µM (≈ 34.1 µg/mL); AUC(0-t) [6]: 1280 ng·h/mL
O=C(NNC(=O)c1cc2ccccc2o1)c1ccc([N+](=O)[O-])o1	> 100 µM	39 µM	
CCCCCCCCCC(=O)N[C@@H](Cc1c[nH]c2ccccc12)C(=O)N[C@H](CC(N)=O)C(=O)N[C@@H](CC(=O)O)C(=O)N[C@@H]1C(=O)NCC(=O)N[C@@H](CCCN)C(=O)N[C@@H](CC(=O)O)C(=O)N[C@H](C)C(=O)N[C@@H](CC(=O)O)C(=O)NCC(=O)N[C@H](CO)C(=O)N[C@@H]([C@H](C)CC(=O)O)C(=O)N[C@@H](CC(=O)c2ccccc2N)C(=O)O[C@@H]1C	10 µM (≈ 16.2 µg/mL)		
C[C@@H](O)[C@H]1C(=O)N2C(C(=O)O)=C(S[C@@H]3CN[C@H](C(=O)N(C)C)C3)[C@H](C)[C@H]12 [MEROPENEM]	19 µM (≈ 7.29 µg/mL)		
O=C(NNC(=O)c1cc2cccnc2s1)c1ccc([N+](=O)[O-])o1	> 100 µM	150 µM	
O=C(NNC(=O)c1sc2cc(Cl)ccc2c1Cl)c1ccc(Cl)o1	> 128 µM	128 µM	
O=C(NNC(=O)c1nc2ccccc2s1)c1ccc([N+](=O)[O-])o1	30 µM (≈ 9.97 µg/mL)	150 µM	
O=C(NNC(=O)c1sc2c(Cl)cccc2c1Cl)c1ccc([N+](=O)[O-])o1	62 µM (≈ 24.8 µg/mL)	> 120 µM	
CC(C)(NC(=O)c1ccc([N+](=O)[O-])o1)c1cc2ccccc2s1	> 150 µM	38 µM	
O=C(NNC(=O)c1cc2c(Cl)cc(Cl)cc2s1)c1ccc([N+](=O)[O-])o1	62 µM (≈ 24.8 µg/mL)	> 124 µM	
O=C(NNC(=O)c1cc2cccc(Cl)c2s1)c1ccc([N+](=O)[O-])o1	4.2 µM (≈ 1.54 µg/mL)	68 µM	
O=[N+]([O-])c1ccc(-c2nnc(-c3cc4ccccc4s3)o2)o1	> 160 µM	160 µM	
O=C(NNC(=O)c1cc2cc(Cl)cc(Cl)c2s1)c1ccc([N+](=O)[O-])o1	0.75 µM (≈ 0.3 µg/mL)	124 µM	t1/2 [4]: 13.3 min; solubility kinetic at 4 h [5]: 0.55 µM (≈ 0.22 µg/mL); AUC(0-t) [6]: 111000 ng·h/mL

SMILES	MIC (Enterococcus faecium [1])	CC50 [3]	also measured
NC[C@H]1O[C@H](O[C@H]2[C@H](O)[C@@H](O[C@H]3O[C@H](CO)[C@@H](O)[C@H](N)[C@H]3O)[C@H](N)C[C@@H]2N)[C@H](O)[C@@H](O)[C@@H]1O [KANAMYCIN]	> 24 µM		
O=C(NNC(=O)c1sc2cc(C(F)(F)F)ccc2c1Cl)c1ccc([N+](=O)[O-])o1	3.6 µM (≈ 1.56 µg/mL)	110 µM	
CN[C@H](CC(C)C)C(=O)N[C@H]1C(=O)N[C@@H](CC(N)=O)C(=O)N[C@H]2C(=O)N[C@H]3C(=O)N[C@H](C(=O)N[C@H](C(=O)O)c4cc(O)cc(O)c4-c4cc3ccc4O)[C@H](O)c3ccc(c(Cl)c3)Oc3cc2cc(c3O[C@@H]2O[C@H](CO)[C@@H](O)[C@H](O)[C@H]2O[C@H]2C[C@](C)(N)[C@H](O)[C@H](C)O2)Oc2ccc(cc2Cl)[C@H]1O [VANCOMYCIN]	1.1 µM (≈ 1.59 µg/mL)		MIC (Enterococcus faecium [2]): ≥ 30 µM; Activity (Enterococcus faecium [7]): Active
O=C(NNC(=O)c1sc2cc(Cl)ccc2c1Cl)c1ccc([N+](=O)[O-])o1	1.9 µM (≈ 0.76 µg/mL)	> 120 µM	t1/2 [4]: 16.6 min; solubility kinetic at 4 h [5]: 0.35 µM (≈ 0.14 µg/mL); AUC ([6]; mouse, po, 25 mg/kg): 75175 ng·h/mL; t1/2 [8]: 85.6 min; Stability [9]: 76.6%; Stability [10]: 89.2%; fraction unbound at 5 h, 5 µM [11]: 0.007; fraction unbound at 5 h, 5 µM [12]: 0.0001; IC50 (Cytochrome P450 1A2): > 50 µM; IC50 (Cytochrome P450 2C9): > 50 µM; IC50 (Cytochrome P450 2C19): > 50 µM; IC50 (Cytochrome P450 2D6): > 50 µM; IC50 (Cytochrome P450 3A4): > 50 µM; F [13]: 47%; Activity [14]: Non-Toxic; MIC (Enterococcus faecium [2]): 1.9 µM (≈ 0.76 µg/mL); Activity (Enterococcus faecium [15]): Active; Activity (Enterococcus faecium [16]): inactive
O=C(NNC(=O)c1sc2cccc(Cl)c2c1Cl)c1ccc([N+](=O)[O-])o1	7.8 µM (≈ 3.12 µg/mL)	> 124 µM	
O=C(NNC(=O)c1cc2c(Cl)cccc2s1)c1ccc([N+](=O)[O-])o1	34 µM (≈ 12.4 µg/mL)	136 µM	
O=C(NCCNC(=O)c1cc2ccccc2s1)c1ccc([N+](=O)[O-])o1	> 140 µM	139 µM	
O=C(NNC(=O)c1sc2ccccc2c1Cl)c1ccc([N+](=O)[O-])o1	17 µM (≈ 6.22 µg/mL)	68 µM	
O=C(c1ccc([N+](=O)[O-])o1)N1CCN(C(=O)c2cc3ccccc3s2)CC1	> 130 µM	16 µM	
O=C(NNC(=O)c1sc2cc(Cl)ccc2c1Cl)c1ccc([N+](=O)[O-])s1	> 120 µM	> 120 µM	
O=C(NNC(=O)c1cc2ccc(Cl)cc2s1)c1ccc([N+](=O)[O-])o1	> 136 µM	> 136 µM	
O=C(NNC(=O)c1sc2cc(Cl)ccc2c1Cl)c1ccc(Cl)s1	> 123 µM	123 µM	
O=C(NNC(=O)c1csc2ccccc12)c1ccc([N+](=O)[O-])o1	15 µM (≈ 4.97 µg/mL)	75 µM	
O=C(NNC(=O)c1sc2cc(F)ccc2c1Cl)c1ccc([N+](=O)[O-])o1	> 130 µM	> 130 µM	
O=C(NNC(=O)c1sc2ccc(Cl)cc2c1Cl)c1ccc([N+](=O)[O-])o1	> 124 µM	> 124 µM	
O=C(NNC(=O)c1cc2cc(Cl)ccc2s1)c1ccc([N+](=O)[O-])o1	> 137 µM	> 137 µM	
O=C(NNC(=O)c1cc2cc(C(F)(F)F)cc(Cl)c2s1)c1ccc([N+](=O)[O-])o1	1.8 µM (≈ 0.781 µg/mL)	> 110 µM	MIC (Staphylococcus aureus): 16 µM (≈ 6.94 µg/mL); MIC (Klebsiella pneumoniae): > 120 µM; MIC (Acinetobacter baumannii): > 120 µM; MIC (Pseudomonas aeruginosa): > 120 µM; t1/2 [4]: 57.8 min; solubility kinetic at 4 h [5]: 0.06 µM (≈ 0.026 µg/mL); AUC(0-t) [6]: 43800 ng·h/mL; MBC (Enterococcus faecium [17]): 7.7 µM (≈ 3.34 µg/mL)
